Laboratory results reported in publication PMC9698010 (Pharmaceutics, 2022).
Where a name gives a salt, the structure may show the parent alone.

Assays:
rat colonic microbiota = assay: Ex vivo stability of tofacitinib in rat cecal slurry (colonic microbiota); assay type: in vitro ADME; conditions: 1 mg/mL in rat cecal slurry, anaerobic
Method: The cecum of healthy rats (male, n = 6) was obtained shortly following animal sacrifice and transferred to an anaerobic workstation (Electrotek 500TG workstation, Electrotek, West Yorkshire, UK) maintained at 37 °C and 70% relative humidity. The rats’ cecums were opened and fluid was collected using aseptic technique to preserve the fluid’s microbial composition. Next, the fluid was homogenised with basal media (ratio 1:4, composition as used by Hughes et al. [29] at 10,000 rpm and sieved through a mesh with 5 µm aperture.
Samples were taken at 0, 1, 2, 4, and 6 h and immediately quenched with ice-cold acetonitrile at a ratio of 1:3 to arrest microbial/enzyme activity. Quenched samples were then centrifuged (9600× g, 10 min, 4 °C) and the supernatant was collected for quantification of drug concentration using HPLC.
A mobile phase consisting of 0.1% phosphoric acid in water (A) and acetonitrile (B) was used via a gradient method, whereby %A: 95 and %B: 5 from 0.0–4.0 min; and %A: 80 and %B: 20 from 4.0–6.0 min. An Agilent Zorbax-Extend C18 column (50 × 4.6 mm, 1.8 μm) (Santa Clara, CA, USA) at 1.8 mL/min, with column temperature equilibrated at 40 ± 2 °C. […] Drug concentration was calculated by comparing the area under the curve (AUC) of the drug’s peak in samples to those produced with a calibration curve.

IL-6 [1] = assay: LPS-induced inflammation, ascending dose oral solution study: colonic tissue IL-6; assay type: in vivo, male Lewis rats; conditions: 4 hours
Method: (§1) Male Lewis rats were fasted overnight before the day of experiment. Rats were chosen as an in vivo model in these experiments as they are commonly used for assessment of IBD investigatory treatments. […] To induce intestinal inflammation, rats were intraperitoneally injected with 1 mg/kg LPS at T1 h. Intraperitoneal injection of LPS is an accepted method for instigating inflammation in rats as pharmacodynamic endpoints. […] Controls used in this study were naïve rats (no induction of inflammation, placebo treatment (PBS)), treatment-free rats (LPS + vehicle (PBS)), and comparative treatment control rats (induction of inflammation, treatment with 1 mg/kg oral dexamethasone solution, formulated in PEG400/polysorbate 80 in deionized water (10/9/81). Rats not treated with LPS were instead injected with the same volume of PBS solution.

IL-6 [2] = assay: LPS-induced inflammation, capsule studies: plasma IL-6; assay type: in vivo, male Lewis rats
Method: To induce intestinal inflammation, 1 mg/kg LPS was injected intraperitoneally into rats at T5 h, this timing was chosen based on the CT imaging results, to allow capsules to reach the intestines. Inflammation-free control rats were instead intraperitoneally injected with an equal volume of PBS. Controls used in this study were naïve rats (no induction of inflammation, vehicle treatment (PBS)), treatment-free rats (LPS + vehicle (PBS)), and comparative treatment control rats (induction of inflammation, treatment with 1 mg/kg oral dexamethasone solution, formulated in PEG400/polysorbate 80 in deionized water (10/9/81), at T4 h). Animal sacrifice occurred at T8 h (3 h after LPS administration). Terminal plasma and colonic tissue were subsequently excised, and levels of IL-6 quantified using the V-PLEX validated immunoassay kit.

IL-6 [3] = assay: LPS-induced inflammation, capsule studies: colonic tissue IL-6; assay type: in vivo, male Lewis rats; conditions: 1 mg/kg dexamethasone oral; targeted vs untargeted comparison, 8 h analysis
IL-6 [4] = assay: LPS-induced inflammation, ascending dose oral solution study: plasma IL-6; assay type: in vivo, male Lewis rats; conditions: 1 mg/kg dexamethasone solution, 4 hours after administration
Method: as §1

[5] = 1 and 10 mg/kg tofacitinib solution

| time stable when delivered to the cecum/colon (rat colonic microbiota) | Structure (SMILES) | colonic IL-6 concentrations compared to the naïve rats (IL-6 [1]; [5]) | colonic tissue IL-6 compared to 0.1 mg/kg tofacitinib (IL-6 [1]; [5]) | plasma IL-6 levels compared to the untreated control (IL-6 [2]; 1 mg/kg dexamethasone oral, targeted vs untargeted comparison, 8 h) | plasma IL-6 compared to the untreated control (IL-6 [2]; 1 mg/kg oral dexamethasone solution, dose response study) | IL-6 concentration in colonic tissue compared to the untreated control (IL-6 [3]) | IL-6 levels in plasma compared to the LPS + vehicle control (IL-6 [4]) | colonic tissue IL-6 compared to the treatment-free control (IL-6 [1]; 1 mg/kg dexamethasone) |
| --- | --- | --- | --- | --- | --- | --- | --- | --- |
| at least 6 h | C[C@@H]1CCN(C(=O)CC#N)C[C@@H]1N(C)c1ncnc2[nH]ccc12 [tofacitinib, Tofacitinib citrate] | no significant difference | significantly lower |  |  |  |  |  |
|  | C[C@@H]1C[C@H]2[C@@H]3CCC4=CC(=O)C=C[C@]4(C)[C@@]3(F)[C@@H](O)C[C@]2(C)[C@@]1(O)C(=O)CO [dexamethasone] |  |  | significantly reduce | lowered | did not significantly alter | significantly lower | significantly lowered |
